Test results taken from patent US20240368135A1 (VERTEX PHARMACEUTICALS INCORPORATED, priority 2021, published 2024).

Biological target: human NaV 1.8 (Homo sapiens, UniProt Q9Y5Y9)
Assay: E-VIPR assay detecting and measuring NaV inhibition properties
Format: cell-based
Settings: HEK cells expressing truncated human NaV 1.8; in the presence of human serum (compound numbers followed by *); read-out: IC50 in the E-VIPR Assay, performed in the presence of human serum
How it was run: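 HEK cells expressing truncated, fully active human NaV1.8, with KIR2.1 BacMam co-transduction, were loaded with CC2-DMPE/DiSBAC6(3) voltage-sensing dyes for 20 min at room temperature. Compounds were tested in 11-point 3-fold dilutions (300 nM top final), optionally with 25% human serum, under electrical stimulation with FRET read-out.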

human NaV 1.8, sequence (Q9Y5Y9 126-399 limits assumed): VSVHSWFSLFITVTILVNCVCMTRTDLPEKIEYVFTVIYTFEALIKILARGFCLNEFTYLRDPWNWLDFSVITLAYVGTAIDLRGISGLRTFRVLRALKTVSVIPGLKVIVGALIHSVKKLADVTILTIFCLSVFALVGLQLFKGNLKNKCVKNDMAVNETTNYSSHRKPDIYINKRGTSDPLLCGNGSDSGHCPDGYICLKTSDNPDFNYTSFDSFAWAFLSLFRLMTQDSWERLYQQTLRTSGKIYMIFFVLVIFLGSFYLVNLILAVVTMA
human NaV 1.8, sequence (Q9Y5Y9 660-890 limits assumed): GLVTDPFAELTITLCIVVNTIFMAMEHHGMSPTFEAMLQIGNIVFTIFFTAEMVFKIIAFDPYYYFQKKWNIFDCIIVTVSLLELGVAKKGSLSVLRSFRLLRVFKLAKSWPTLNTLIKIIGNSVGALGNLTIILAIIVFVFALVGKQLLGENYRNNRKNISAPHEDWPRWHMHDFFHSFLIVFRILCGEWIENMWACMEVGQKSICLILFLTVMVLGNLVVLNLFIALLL
human NaV 1.8, sequence (Q9Y5Y9 1148-1722 limits assumed): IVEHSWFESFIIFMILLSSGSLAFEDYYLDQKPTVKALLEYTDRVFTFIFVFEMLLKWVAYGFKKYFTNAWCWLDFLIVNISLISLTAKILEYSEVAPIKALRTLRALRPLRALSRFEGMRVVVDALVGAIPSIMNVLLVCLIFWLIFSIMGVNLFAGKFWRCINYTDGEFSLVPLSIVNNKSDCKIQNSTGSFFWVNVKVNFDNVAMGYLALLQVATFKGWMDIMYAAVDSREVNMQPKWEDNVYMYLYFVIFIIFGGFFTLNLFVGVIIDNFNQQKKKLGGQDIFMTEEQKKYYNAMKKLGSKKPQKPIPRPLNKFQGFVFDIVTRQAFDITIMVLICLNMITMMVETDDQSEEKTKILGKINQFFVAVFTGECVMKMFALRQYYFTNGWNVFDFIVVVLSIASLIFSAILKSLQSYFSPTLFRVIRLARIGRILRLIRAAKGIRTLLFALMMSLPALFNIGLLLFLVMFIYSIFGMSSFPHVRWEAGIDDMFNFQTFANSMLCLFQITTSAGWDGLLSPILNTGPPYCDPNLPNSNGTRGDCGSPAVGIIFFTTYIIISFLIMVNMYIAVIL

IC50, ≥ 1 µM:
C[C@@H]1[C@H](c2ccc(F)c(F)c2OC(F)F)[C@@H](C(=O)Nc2ccnc(S(C)(=O)=O)c2)O[C@]1(C)C(F)(F)F (single isomer, unassigned) [Compound 86]
COc1c([C@H]2C[C@@](C)(C(F)(F)F)O[C@@H]2C(=O)Nc2cn(S(C)(=O)=O)nc2C)ccc(F)c1F (stereo in doubt) [Compound 683, rel-(2S,3R,5S)-3-(3,4-difluoro-2-methoxyphenyl)-5-methyl-N-(3-methyl-1-(methylsulfonyl)-1H-pyrazol-4-yl)-5-(trifluoromethyl)tetrahydrofuran-2-carboxamide]

Same assay, conditions: HEK cells expressing truncated human NaV 1.8; no human serum; read-out: IC50 in the E-VIPR Assay

IC50, 0.01 to 0.1 µM:
C[C@H]1[C@@H](c2ccc(F)c(F)c2OC(F)F)[C@H](C(=O)Nc2ccc(CCO)nc2)O[C@@]1(C)C(F)(F)F (single isomer, unassigned) [Compound 460]
COc1c([C@H]2[C@H](C(=O)Nc3ccnc(N4CC[C@@H](O)C4=O)c3)O[C@@](C)(C(F)(F)F)[C@H]2C)ccc(F)c1F [Compound 471, (2R,3S,4S,5R)-3-(3,4-difluoro-2-methoxyphenyl)-N-(2-((R)-3-hydroxy-2-oxopyrrolidin-1-yl)pyridin-4-yl)-4,5-dimethyl-5-(trifluoromethyl)tetrahydrofuran-2-carboxamide]
Cc1nn(C)cc1NC(=O)[C@@H]1O[C@@](C)(C(F)(F)F)[C@@H](C)[C@H]1c1ccc(F)c(F)c1OCCO [Compound 557, (2R,3S,4S,5R)-3-(3,4-difluoro-2-(2-hydroxyethoxy)phenyl)-N-(1,3-dimethyl-1H-pyrazol-4-yl)-4,5-dimethyl-5-(trifluoromethyl)tetrahydrofuran-2-carboxamide]
Cc1nn(C(F)F)cc1NC(=O)[C@@H]1O[C@@](C)(C(F)(F)F)[C@@H](C)[C@H]1c1ccc(F)c(F)c1CCO [Compound 677, (2R,3S,4S,5R)-3-(3,4-difluoro-2-(2-hydroxyethyl)phenyl)-N-(1-(difluoromethyl)-3-methyl-1H-pyrazol-4-yl)-4,5-dimethyl-5-(trifluoromethyl)tetrahydrofuran-2-carboxamide]
COc1c([C@H]2[C@H](C(=O)Nc3cc(O[C@@H]4COC[C@@H]4O)ncn3)O[C@@](C)(C(F)(F)F)[C@H]2C)ccc(F)c1F (relative stereo) [Compound 238, (2R*,3S*,4S*,5R*)-3-(3,4-difluoro-2-methoxyphenyl)-N-(6-((cis-4-hydroxytetrahydrofuran-3-yl)oxy)pyrimidin-4-yl)-4,5-dimethyl-5-(trifluoromethyl)tetrahydrofuran-2-carboxamide]
COc1c([C@H]2[C@H](C(=O)Nc3ccnc(C4(N)CCOC4)c3)O[C@@](C)(C(F)(F)F)[C@H]2C)ccc(F)c1F (single isomer, unassigned) [Compound 347, rel-(2R*,3S*,4S*,5R*)-N-(2-(3-aminotetrahydrofuran-3-yl)pyridin-4-yl)-3-(3,4-difluoro-2-methoxyphenyl)-4,5-dimethyl-5-(trifluoromethyl)-tetrahydrofuran-2-carboxamide]
Cc1nn(CCO)cc1NC(=O)[C@@H]1O[C@@](C)(C(F)(F)F)[C@@H](C)[C@H]1c1ccc(F)c(F)c1OC(F)F (single isomer, unassigned) [Compound 76]
COc1c([C@H]2[C@H](C(=O)Nc3ccnc(OC4CCN(C)C4=O)c3)O[C@@](C)(C(F)(F)F)[C@H]2C)ccc(F)c1F (single isomer, unassigned) [Compound 198, rel-(2R*,3S*,4S*,5R*)-3-(3,4-difluoro-2-methoxyphenyl)-4,5-dimethyl-N-(2-((1-methyl-2-oxopyrrolidin-3-yl)oxy)pyridin-4-yl)-5-(trifluoromethyl)tetrahydrofuran-2-carboxamide]

IC50, ≥ 1 µM:
COc1c([C@H]2[C@H](C(=O)NCc3cc(C(N)=O)co3)O[C@@](C)(C(F)(F)F)[C@H]2C)ccc(F)c1F [Compound 286, 5-(((2R,3S,4S,5R)-3-(3,4-difluoro-2-methoxyphenyl)-4,5-dimethyl-5-(trifluoromethyl)tetrahydrofuran-2-carboxamido)methyl)furan-3-carboxamide]

IC50, 0.1 to 1 µM:
COc1c([C@@H]2[C@@H](C(=O)Nc3ccnc(S(C)(=N)=O)c3)O[C@](C)(C(F)(F)F)[C@@H]2C)ccc(F)c1C (relative stereo) [Compound 150, rel-(2S,3R,4R,5S)-3-(4-fluoro-2-methoxy-3-methylphenyl)-4,5-dimethyl-N-(2-(S-methylsulfonimidoyl)pyridin-4-yl)-5-(trifluoromethyl)tetrahydrofuran-2-carboxamide]
COc1ncc(NC(=O)[C@@H]2O[C@@](C)(C(F)(F)F)[C@@H](C)[C@H]2c2ccc(F)c(F)c2OCCO)cn1 [Compound 550, (2R,3S,4S,5R)-3-(3,4-difluoro-2-(2-hydroxyethoxy)phenyl)-N-(2-methoxypyrimidin-5-yl)-4,5-dimethyl-5-(trifluoromethyl)tetrahydrofuran-2-carboxamide]
CCOc1c([C@@H]2[C@@H](C(=O)Nc3ccn4nnnc4c3)O[C@](C)(C(F)(F)F)[C@@H]2C)ccc(F)c1C (stereo in doubt) [Compound 122, rel-(2S,3R,4R,5S)-3-(2-ethoxy-4-fluoro-3-methylphenyl)-4,5-dimethyl-N-(tetrazolo[1,5-a]pyridin-7-yl)-5-(trifluoromethyl)tetrahydrofuran-2-carboxamide]

IC50, < 0.01 µM:
COc1c([C@H]2[C@H](C(=O)Nc3cn(C[C@@H](O)CO)nc3C)O[C@@](C)(C(F)(F)F)[C@H]2C)ccc(F)c1F [Compound 201, (2R,3S,4S,5R)-3-(3,4-difluoro-2-methoxyphenyl)-N-(1-((R)-2,3-dihydroxypropyl)-3-methyl-1H-pyrazol-4-yl)-4,5-dimethyl-5-(trifluoromethyl)tetrahydrofuran-2-carboxamide]
COc1c([C@H]2[C@H](C(=O)Nc3ccnc(OC4CCN(C)C4=O)c3)O[C@@](C)(C(F)(F)F)[C@H]2C)ccc(F)c1F (single isomer, unassigned) [Compound 197, rel-(2R*,3S*,4S*,5R*)-3-(3,4-difluoro-2-methoxyphenyl)-4,5-dimethyl-N-(2-((1-methyl-2-oxopyrrolidin-3-yl)oxy)pyridin-4-yl)-5-(trifluoromethyl)tetrahydrofuran-2-carboxamide]
C[C@@H]1CN(C)CC(=O)N1c1cc(NC(=O)[C@@H]2O[C@@](C)(C(F)(F)F)[C@@H](C)[C@H]2c2ccc(F)c(F)c2OC(F)F)ccn1 [Compound 517, (2R,3S,4S,5R)-3-[2-(difluoromethoxy)-3,4-difluoro-phenyl]-N-[2-[(2R)-2,4-dimethyl-6-oxo-piperazin-1-yl]-4-pyridyl]-4,5-dimethyl-5-(trifluoromethyl)tetrahydrofuran-2-carboxamide]
COc1c([C@H]2[C@H](C(=O)Nc3ccc(S(C)(=N)=O)nc3)O[C@@](C)(C(F)(F)F)[C@H]2C)ccc(F)c1F (single isomer, unassigned) [Compound 336, rel-(2R*,3S*,4S*,5R*)-3-(3,4-difluoro-2-methoxyphenyl)-4,5-dimethyl-N-(6-(S-methylsulfonimidoyl)-pyridin-3-yl)-5-(trifluoromethyl)-tetrahydrofuran-2-carboxamide]
